Source: paper PMC3985299, “Single Ascending Dose Safety and Pharmacokinetics of CDRI-97/78: First-in-Human Study of a Novel Antimalarial Drug” (Malaria Research and Treatment, 2014)
“Also recorded” adds a separate entry of the source.

Tests used:
healthy human volunteers [1] = assay: Single ascending dose study: clinical parameters (blood pressure, pulse rate, respiratory rate, corrected QT); type: in vivo; set-up: SBP / DBP: unit not given here; conditions: for DBP / SBP: 2 hours after drug administration; for Diastolic blood pressure: 600 and 700 mg group
Text: The volunteers after giving informed consent were screened. The screening process was done latest within 1 month of admission for dosing. The volunteers who fulfilled the inclusion/exclusion criteria were admitted in the CPU the night before drug administration. Standardized dinner was served at 9 pm the night prior to dosing. On day 0, baseline blood sample for biochemical and haematological examination and stool and urine samples for routine and microscopy were taken. They received the study drug, according to the randomization sequence, under supervision. The empty packaging was returned to the container. The volunteers received drug as per randomization. Breakfast was given half an hour after drug administration. Subsequently, standardized lunch and dinner were served to the volunteers.
The subjects were attached to a cardiac monitor and vital HR, BP, ECG, oxygen saturation, and RR were recorded. Corrected QT interval using Fridericia's formula was calculated. Adverse events were assessed at specific time points (0.5, 1, 2, 4, 6, 8, 12, and 24 hrs after medication). Unscheduled monitoring was undertaken whenever it felt necessary. The volunteers were discharged after 24 hrs and they had to return at 48 hrs and on the 7th day for follow-up. At the end of the 7th day, they were said to have completed the study. Routine haematological and biochemical investigations were performed at 0 hr, 24 hrs after drug administration, and on day 7. The study was monitored by a Data Safety Monitoring Board.

healthy human volunteers [2] = assay: Single ascending dose study: haematological parameters; type: in vivo; conditions: 400 mg
Text: The study was approved by the Institute's Ethics Committee. The single ascending dose study and the pharmacokinetic study are registered with Central Trial Registry of India (CTRI/2012/07/002812; CTRI/2012/07/002832). Normal healthy male volunteers in the age group of 18–45 years were invited to join the trial. A detailed informed consent process of the volunteers was undertaken and screening of the volunteers was done after obtaining informed consent. They were recruited through contacts and hospital employees were excluded. The health status of the volunteers was determined by taking medical history, physical examination, routine haematology (haemoglobin, total lymphocyte count, differential count, and platelet count), clinical biochemistry (serum glutamic oxaloacetic transaminase (SGOT), serum glutamic pyruvic transaminase (SGPT), serum bilirubin, serum creatinine, blood urea, serum electrolytes, random blood sugar, total protein, and serum lipid profile), and urine and stool analysis (routine examination and microscopy). The volunteers were asked to report to the study site after 12 hours of fasting for the blood tests. Chest X-ray and 12-lead ECG were also taken. The participants were also screened for human immunodeficiency virus (HIV) and hepatitis B. The volunteers after giving informed consent were screened. The screening process was done latest within 1 month of admission for dosing. The volunteers who fulfilled the inclusion/exclusion criteria were admitted in the CPU the night before drug administration. Standardized dinner was served at 9 pm the night prior to dosing. On day 0, baseline blood sample for biochemical and haematological examination and stool and urine samples for routine and microscopy were taken. […] The subjects were attached to a cardiac monitor and vital HR, BP, ECG, oxygen saturation, and RR were recorded. Corrected QT interval using Fridericia's formula was calculated. Adverse events were assessed at specific time points (0.5, 1, 2, 4, 6, 8, 12, and 24 hrs after medication). […] The study was monitored by a Data Safety Monitoring Board.

[3] = Single oral dose (200 mg) pharmacokinetic study, plasma LC-MS/MS, noncompartmental analysis; type: in vivo, human; conditions: oral 200 mg
Procedure: For pharmacokinetic (PK) study, eligible participants were admitted and housed in the clinical pharmacology unit an evening prior to the PK study. A standard dinner was served and a fasting condition for at least 10 hrs prior to dosing and 4 hrs after dosing was ensured. A peripheral forearm vein was cannulated for sampling for the PK analysis. 200 mg of the study drug was administered with 300 mL of water. The time of actual dose administration to the nearest minute was recorded. 2.5 mL of blood was collected from the indwelling cannula at 0 (before dose), 0.25, 0.5, 0.75, 1, 1.5, 2, 4, 6, 8, 12, 18, 24, 48, 72, 96, 120, and 144 hrs (after dose). 10 mL of additional blood was collected at 0 (before dose) and 24 hr (after dose) for laboratory parameters for safety assessment and PK control sample. A time window of ±2 minutes was permitted for collecting the post dose samples from the scheduled time for PK analysis. Plasma was separated from blood sample intended for PK analysis, within 1 hour of blood sampling, by centrifugation at 2000 rpm for 10 min at 4°C. Samples were stored at −80°C pending transportation. Heparinised blood samples were transported to the laboratory within 7 days of collection. Quantitative analyses of clinical phase ascending dose and single dose PKs samples were done at GLP lab of Pharmacokinetics and Metabolism Division, CDRI, Lucknow, India. α-Arteether was used as an internal standard and all the analyses were performed as per the published method by Singh et al. 2009 [19]. Acceptance criteria for analytical runs were fixed as per internationally approved guidelines. Data acquisition and quantitation were performed using analyst software version 1.4 (Applied Biosystems, MDS SCIEX Toronto, Canada). PK parameters were estimated by using WinNonlin software (Version 1.5, Pharsight Corporation, Mountain View, CA). Oral data were best fitted in noncompartmental model. The individual plasma concentration-time profiles were subjected to noncompartmental analysis to determine various PK parameters. The PK parameters included the terminal elimination half-life (T 1/2), maximum plasma concentration (C max), time to reach maximum plasma concentration (T max), area under the curve (AUC0–∞), and mean residence time (MRT).

[4] = system: chloroquine resistant P. falciparum; set-up: method as in printed; conditions: chloroquine resistant P. falciparum in vitro; background, ref not given; cited from earlier work

**Q.** Which DBP (healthy human volunteers [1]; 80 mg) does the source give for `C=C(c1ccc(OC(C)(C)COC(=O)CCC(=O)O)cc1)C1COC2(OO1)C1CC3CC(C1)CC2C3` (stereo not drawn) [CDRI 97/78, Mono[2methyl2[3(1spiro[tricycle[3.3.1.13,7]decane2,3′-[1,2,4]trioxan] 6′-ylethenyl)phenoxy]propyl] ester] here?
**A.** 73 ± 5.21

**Q.** What about the SBP (healthy human volunteers [1]; 80 mg) of the same molecule?
**A.** 112.17 ± 6.24

**Q.** And the DBP (healthy human volunteers [1]; 160 mg)?
**A.** 77.17 ± 8.06

**Q.** And the SBP (healthy human volunteers [1]; 160 mg)?
**A.** 119.5 ± 5.17

**Q.** What about the DBP (healthy human volunteers [1]; 320 mg) of the same molecule?
**A.** 82.33 ± 4.68

**Q.** And the SBP (healthy human volunteers [1]; 320 mg)?
**A.** 127.5 ± 6.38

**Q.** What about the DBP (healthy human volunteers [1]; 400 mg) of the same molecule?
**A.** 71.33 ± 8.19

**Q.** What about the SBP (healthy human volunteers [1]; 400 mg) of the same molecule?
**A.** 111.83 ± 7.91

**Q.** And the DBP (healthy human volunteers [1]; 500 mg)?
**A.** 71.83 ± 7.81

**Q.** What about the SBP (healthy human volunteers [1]; 500 mg) of the same molecule?
**A.** 114.5 ± 8.34

**Q.** What about the DBP (healthy human volunteers [1]; 600 mg) of the same molecule?
**A.** 66.5 ± 6.53

**Q.** What about the SBP (healthy human volunteers [1]; 600 mg) of the same molecule?
**A.** 112.83 ± 6.18

**Q.** And the DBP (healthy human volunteers [1]; 700 mg)?
**A.** 69 ± 8.48

**Q.** What about the SBP (healthy human volunteers [1]; 700 mg) of the same molecule?
**A.** 115.5 ± 2.12

**Q.** What about the “Corrected QT interval (Fridericia), change within treatment groups” value (healthy human volunteers [1]; 80-700 mg groups) of the same molecule?
**A.** no statistically or clinically significant difference; also recorded: No clinically meaningful alteration

**Q.** What about the Diastolic blood pressure (healthy human volunteers [1]; 0 hours) of the same molecule?
**A.** 76.87 ± 8.74 mmHg

**Q.** And the Diastolic blood pressure (healthy human volunteers [1]; 0.5 hours)?
**A.** 78.37 ± 8.86 mmHg

**Q.** And the Diastolic blood pressure (healthy human volunteers [1]; 1 hours)?
**A.** 79.25 ± 13.46 mmHg

**Q.** And the Diastolic blood pressure (healthy human volunteers [1]; 2 hours)?
**A.** 67.12 ± 6.49 mmHg

**Q.** And the Diastolic blood pressure (healthy human volunteers [1]; 4 hours)?
**A.** 73.12 ± 12.32 mmHg

**Q.** And the Diastolic blood pressure (healthy human volunteers [1]; 6 hours)?
**A.** 75.87 ± 8.11 mmHg

**Q.** What about the Diastolic blood pressure (healthy human volunteers [1]; 8 hours) of the same molecule?
**A.** 74 ± 11 mmHg

**Q.** What about the Diastolic blood pressure (healthy human volunteers [1]; 12 hours) of the same molecule?
**A.** 75 ± 10.03 mmHg

**Q.** And the “Pulse rate, respiratory rate and systolic blood pressure, change compared to baseline” value (healthy human volunteers [1]; any time point, all treatment groups)?
**A.** None of the treatment groups demonstrated a significant alteration

**Q.** What about the Hemoglobin (healthy human volunteers [2]; 7th day) of the same molecule?
**A.** 14.35 ± 1.10 gm%

**Q.** What about the Hemoglobin (healthy human volunteers [2]; 24 hr) of the same molecule?
**A.** 14.92 ± 0.94 gm%

**Q.** What about the Hemoglobin (healthy human volunteers [2]; baseline) of the same molecule?
**A.** 14.25 ± 0.75 gm%

**Q.** What about the Absorption [3] of the same molecule?
**A.** rapidly absorbed

**Q.** What about the “Plasma concentration of parent molecule” value ([3]; most of the volunteers) of the same molecule?
**A.** below the limit of quantitation

**Q.** And the Antimalarial activity [4]?
**A.** powerful antimalarial activity
